Laboratory results published in the NIST ThermoML archive (doi:10.1021/acs.jced.5b00978).
Values joined by “and” are separate entries in the source; they are usually repeats but may differ in a detail not shown here. Equal values may be shown once.

What was measured:
[1] = for Normal melting temperature: DTA
[2] = Molar enthalpy of transition or fusion; conditions: Crystal; DSC

COC(=O)c1ccc(C=O)cc1 [methyl 4-formylbenzoate]
[1]
Conditions	vapor or sublimation pressure [kPa]
303.1 K, Crystal, Closed cell (Static) method	0.00069
305.04 K, Crystal, Closed cell (Static) method	0.00086
307.04 K, Crystal, Closed cell (Static) method	0.00109
309.04 K, Crystal, Closed cell (Static) method	0.00137
311.05 K, Crystal, Closed cell (Static) method	0.00173
313.01 K, Crystal, Closed cell (Static) method	0.00216
314.99 K, Crystal, Closed cell (Static) method	0.00268
317.07 K, Crystal, Closed cell (Static) method	0.00335
319.02 K, Crystal, Closed cell (Static) method	0.00412
321.01 K, Crystal, Closed cell (Static) method	0.00511
323.02 K, Crystal, Closed cell (Static) method	0.00635
324.99 K, Crystal, Closed cell (Static) method	0.0078
326.93 K, Metastable liquid, Closed cell (Static) method	0.01165
326.97 K, Crystal, Closed cell (Static) method	0.00965
328.93 K, Metastable liquid, Closed cell (Static) method	0.01357
328.97 K, Crystal, Closed cell (Static) method	0.01165
330.9 K, Metastable liquid, Closed cell (Static) method	0.01573
330.92 K, Crystal, Closed cell (Static) method	0.01405
332.84 K, Metastable liquid, Closed cell (Static) method	0.01823
334.84 K, Metastable liquid, Closed cell (Static) method	0.02122
336.84 K, Closed cell (Static) method, Liquid	0.02458
338.85 K, Closed cell (Static) method, Liquid	0.02803
340.8 K, Closed cell (Static) method, Liquid	0.03252
342.76 K, Closed cell (Static) method, Liquid	0.0371
344.76 K, Closed cell (Static) method, Liquid	0.04283
346.67 K, Closed cell (Static) method, Liquid	0.04856
348.71 K, Closed cell (Static) method, Liquid	0.05584
350.65 K, Closed cell (Static) method, Liquid	0.06347
352.66 K, Closed cell (Static) method, Liquid	0.07223
354.52 K, Closed cell (Static) method, Liquid	0.08123
356.6 K, Closed cell (Static) method, Liquid	0.09314
358.58 K, Closed cell (Static) method, Liquid	0.1051
360.55 K, Closed cell (Static) method, Liquid	0.1182
362.49 K, Closed cell (Static) method, Liquid	0.1338
364.51 K, Closed cell (Static) method, Liquid	0.1519
366.47 K, Closed cell (Static) method, Liquid	0.1698
368.46 K, Closed cell (Static) method, Liquid	0.1902
370.41 K, Closed cell (Static) method, Liquid	0.2138
372.39 K, Closed cell (Static) method, Liquid	0.2395
374.28 K, Closed cell (Static) method, Liquid	0.2657
376.36 K, Closed cell (Static) method, Liquid	0.298
378.24 K, Closed cell (Static) method, Liquid	0.3306
380.3 K, Closed cell (Static) method, Liquid	0.3693
382.21 K, Closed cell (Static) method, Liquid	0.4085
384.22 K, Closed cell (Static) method, Liquid	0.4558
386.18 K, Closed cell (Static) method, Liquid	0.5028
388.17 K, Closed cell (Static) method, Liquid	0.562

Conditions	Normal melting temperature [°C]
[1], Crystal	62.1

Conditions	Molar enthalpy of transition or fusion [kJ/mol]
[2]	21.4

CNc1ccc(C(=O)OC)cc1 [methyl p-(methylamino)benzoate]
[1]
Conditions	vapor or sublimation pressure
317.09 K, Crystal, Calculated from knudsen effusion weight loss	7.8e-05 kPa
319.16 K, Crystal, Calculated from knudsen effusion weight loss	0.000101 kPa and 0.000103 kPa
321.19 K, Crystal, Calculated from knudsen effusion weight loss	0.000131 kPa and 0.00013 kPa
323.08 K, Crystal, Calculated from knudsen effusion weight loss	0.000167 kPa and 0.000165 kPa and 0.000168 kPa
325.15 K, Crystal, Calculated from knudsen effusion weight loss	0.000213 kPa and 0.000207 kPa and 0.000215 kPa
327.18 K, Crystal, Calculated from knudsen effusion weight loss	0.000263 kPa and 0.000266 kPa and 0.000271 kPa
329.12 K, Crystal, Calculated from knudsen effusion weight loss	0.000338 kPa and 0.000335 kPa and 0.000341 kPa
331.22 K, Crystal, Calculated from knudsen effusion weight loss	0.000427 kPa and 0.000425 kPa and 0.000433 kPa
332.9 K, Crystal, Closed cell (Static) method	0.00054 kPa
333.17 K, Crystal, Calculated from knudsen effusion weight loss	0.000537 kPa and 0.000535 kPa and 0.00054 kPa
334.88 K, Crystal, Closed cell (Static) method	0.00068 kPa
335.09 K, Crystal, Calculated from knudsen effusion weight loss	0.00068 kPa and 0.000688 kPa and 0.000691 kPa
336.87 K, Crystal, Closed cell (Static) method	0.00086 kPa
337.17 K, Crystal, Calculated from knudsen effusion weight loss	0.000869 kPa and 0.000862 kPa and 0.000855 kPa
338.87 K, Crystal, Closed cell (Static) method	0.00108 kPa
339.18 K, Crystal, Calculated from knudsen effusion weight loss	0.001064 kPa and 0.00106 kPa and 0.001061 kPa
340.85 K, Crystal, Closed cell (Static) method	0.00134 kPa
342.84 K, Crystal, Closed cell (Static) method	0.00167 kPa
344.81 K, Crystal, Closed cell (Static) method	0.00207 kPa
346.8 K, Crystal, Closed cell (Static) method	0.00257 kPa
348.77 K, Metastable liquid, Closed cell (Static) method	0.00482 kPa
348.79 K, Crystal, Closed cell (Static) method	0.00317 kPa
350.76 K, Metastable liquid, Closed cell (Static) method	0.0056 kPa
350.81 K, Crystal, Closed cell (Static) method	0.0039 kPa
352.75 K, Metastable liquid, Closed cell (Static) method	0.00655 kPa
352.76 K, Crystal, Closed cell (Static) method	0.00477 kPa
354.74 K, Crystal, Closed cell (Static) method	0.00575 kPa
354.74 K, Metastable liquid, Closed cell (Static) method	0.0076 kPa
356.72 K, Metastable liquid, Closed cell (Static) method	0.00876 kPa
356.73 K, Crystal, Closed cell (Static) method	0.00703 kPa
358.69 K, Metastable liquid, Closed cell (Static) method	0.01017 kPa
358.71 K, Crystal, Closed cell (Static) method	0.0085 kPa
360.67 K, Metastable liquid, Closed cell (Static) method	0.01173 kPa
360.69 K, Crystal, Closed cell (Static) method	0.01033 kPa
362.67 K, Metastable liquid, Closed cell (Static) method	0.01351 kPa
364.65 K, Metastable liquid, Closed cell (Static) method	0.01561 kPa
366.64 K, Metastable liquid, Closed cell (Static) method	0.01788 kPa
368.55 K, Closed cell (Static) method, Liquid	0.02015 kPa
370.6 K, Closed cell (Static) method, Liquid	0.02331 kPa
372.58 K, Closed cell (Static) method, Liquid	0.02669 kPa
374.55 K, Closed cell (Static) method, Liquid	0.03049 kPa
376.53 K, Closed cell (Static) method, Liquid	0.03459 kPa
378.5 K, Closed cell (Static) method, Liquid	0.03935 kPa
380.51 K, Closed cell (Static) method, Liquid	0.04446 kPa
382.47 K, Closed cell (Static) method, Liquid	0.05044 kPa
384.46 K, Closed cell (Static) method, Liquid	0.05682 kPa
386.45 K, Closed cell (Static) method, Liquid	0.06435 kPa
388.41 K, Closed cell (Static) method, Liquid	0.07241 kPa
390.4 K, Closed cell (Static) method, Liquid	0.0815 kPa
392.35 K, Closed cell (Static) method, Liquid	0.09154 kPa

Conditions	Normal melting temperature [°C]
[1], Crystal	93

Conditions	Molar enthalpy of transition or fusion [kJ/mol]
[2]	27.5

COC(=O)c1ccc(C#N)cc1 [methyl p-cyanobenzoate]
[1], Closed cell (Static) method
Conditions	vapor or sublimation pressure [kPa]
303.93 K, Crystal	0.00066
306.95 K, Crystal	0.00092
309.92 K, Crystal	0.0013
312.93 K, Crystal	0.00183
315.91 K, Crystal	0.00252
318.88 K, Crystal	0.00347
321.94 K, Crystal	0.00479
324.93 K, Crystal	0.00649
327.89 K, Crystal	0.00872
330.89 K, Crystal	0.01165
333.86 K, Crystal	0.01562
336.84 K, Crystal	0.02058
339.83 K, Liquid	0.02686
342.81 K, Liquid	0.0331
345.8 K, Liquid	0.04054
348.76 K, Liquid	0.04932
351.75 K, Liquid	0.06007
354.72 K, Liquid	0.07314
357.79 K, Liquid	0.08912
360.66 K, Liquid	0.1059
363.64 K, Liquid	0.1276
366.47 K, Liquid	0.1508
369.42 K, Liquid	0.1793
372.4 K, Liquid	0.2131
375.39 K, Liquid	0.2508
378.3 K, Liquid	0.2957
381.25 K, Liquid	0.3487
384.19 K, Liquid	0.4061
387.18 K, Liquid	0.4767
390.14 K, Liquid	0.5554
393.05 K, Liquid	0.644

Conditions	Normal melting temperature [°C]
[1], Crystal	65.1

Conditions	Molar enthalpy of transition or fusion [kJ/mol]
[2]	21.8

COC(=O)c1ccc([N+](=O)[O-])cc1 [methyl p-nitrobenzoate]
[1]
Conditions	vapor or sublimation pressure [kPa]
319.01 K, Crystal, Closed cell (Static) method	0.00074
321.07 K, Crystal, Closed cell (Static) method	0.00092
322.98 K, Crystal, Closed cell (Static) method	0.00115
325.03 K, Crystal, Closed cell (Static) method	0.00144
326.97 K, Crystal, Closed cell (Static) method	0.00177
328.99 K, Crystal, Closed cell (Static) method	0.0022
330.91 K, Crystal, Closed cell (Static) method	0.00265
332.94 K, Crystal, Closed cell (Static) method	0.00333
334.86 K, Crystal, Closed cell (Static) method	0.00404
336.9 K, Crystal, Closed cell (Static) method	0.00497
338.83 K, Crystal, Closed cell (Static) method	0.00597
340.86 K, Crystal, Closed cell (Static) method	0.00734
342.77 K, Crystal, Closed cell (Static) method	0.00878
344.81 K, Crystal, Closed cell (Static) method	0.01073
346.71 K, Crystal, Closed cell (Static) method	0.01286
348.76 K, Crystal, Closed cell (Static) method	0.01564
350.59 K, Crystal, Closed cell (Static) method	0.01843
352.71 K, Crystal, Closed cell (Static) method	0.02255
354.57 K, Crystal, Closed cell (Static) method	0.02656
356.66 K, Crystal, Closed cell (Static) method	0.03213
358.51 K, Crystal, Closed cell (Static) method	0.03767
360.47 K, Metastable liquid, Closed cell (Static) method	0.05433
360.61 K, Crystal, Closed cell (Static) method	0.04542
362.46 K, Metastable liquid, Closed cell (Static) method	0.0615
362.47 K, Crystal, Closed cell (Static) method	0.05331
364.43 K, Metastable liquid, Closed cell (Static) method	0.06971
364.55 K, Crystal, Closed cell (Static) method	0.06362
370.48 K, Closed cell (Static) method, Liquid	0.1019
372.46 K, Closed cell (Static) method, Liquid	0.1149
374.39 K, Closed cell (Static) method, Liquid	0.1281
376.4 K, Closed cell (Static) method, Liquid	0.1446
378.37 K, Closed cell (Static) method, Liquid	0.1615
380.36 K, Closed cell (Static) method, Liquid	0.1809
382.3 K, Closed cell (Static) method, Liquid	0.2008
384.27 K, Closed cell (Static) method, Liquid	0.2241
386.24 K, Closed cell (Static) method, Liquid	0.2502
388.24 K, Closed cell (Static) method, Liquid	0.2792
390.19 K, Closed cell (Static) method, Liquid	0.3091
392.19 K, Closed cell (Static) method, Liquid	0.3449
394.11 K, Closed cell (Static) method, Liquid	0.3796
396.19 K, Closed cell (Static) method, Liquid	0.4248
398.07 K, Closed cell (Static) method, Liquid	0.4655
400.05 K, Closed cell (Static) method, Liquid	0.5141
401.96 K, Closed cell (Static) method, Liquid	0.5665
403.96 K, Closed cell (Static) method, Liquid	0.6244
405.95 K, Closed cell (Static) method, Liquid	0.6894
407.87 K, Closed cell (Static) method, Liquid	0.7541
409.86 K, Closed cell (Static) method, Liquid	0.8302
411.81 K, Closed cell (Static) method, Liquid	0.9078
413.78 K, Closed cell (Static) method, Liquid	0.9952
415.75 K, Closed cell (Static) method, Liquid	1.088

Conditions	Normal melting temperature [°C]
[1], Crystal	96.2

Conditions	Molar enthalpy of transition or fusion [kJ/mol]
[2]	24.4
